Source: US20230174492A1, “SUBSTITUTED CONDENSED AZINES AS ANTHELMINTIC COMPOUNDS” (Bayer Animal Health GmbH, priority 2020, published 2023)

What was measured:
Type in all cases: cell-based
D. immitis Slo-1 = D. immitis Slo-1 (Dirofilaria immitis, UniProt I0DFK5); assay: In Vitro Assay 2: D. immitis Slo-1, action at a recombinant D. immitis cell line (membrane potential, FLIPR)
[1] = test system: Nippostrongylus brasiliensis; assay: In Vitro Assay 3: Nippostrongylus brasiliensis (NIPOBR), acetylcholine esterase readout; conditions: adult worms, read-out: activity (reduction of AChE compared to negative control); for inhibition at 1 µg/mL: at 1 μg/ml; for inhibition at 10 µg/mL: at 10 μg/ml
Protocol: In Vitro Assay 3: Nippostrongylus brasiliensis (NIPOBR)
Adult Nippostrongylus brasiliensis are washed with saline buffer containing 100 U/ml penicillin, 0.1 mg/ml streptomycin and 2.5 μg/ml amphotericin B. Test compounds are dissolved in DMSO and worms are incubated in medium in a final concentration of 10 μg/ml (10 ppm) respectively 1 μg/ml (1 ppm). An aliquot of the medium is used to determine the acetylcholine esterase activity in comparison to a negative control. The principle of measuring acetylcholine esterase as readout for anthelmintic activity is described in Rapson et al (1986) and Rapson et al (1987).

[2] = test system: Dirofilaria immitis microfilariae; assay: In Vitro Assay 4: Dirofilaria immitis microfilariae (DIROIM L1), motility; conditions: 72 h
[3] = test system: Dirofilaria immitis third-stage larvae; assay: In Vitro Assay 5: Dirofilaria immitis (DIROIM L4), motility; conditions: 72 h
[4] = test system: Nippostrongylus brasiliensis; assay: In Vitro Assay 3: Nippostrongylus brasiliensis (NIPOBR), acetylcholine esterase readout; conditions: read-out: activity (reduction of AChE compared to negative control)

Sequence of D. immitis Slo-1 (I0DFK5 1-1119): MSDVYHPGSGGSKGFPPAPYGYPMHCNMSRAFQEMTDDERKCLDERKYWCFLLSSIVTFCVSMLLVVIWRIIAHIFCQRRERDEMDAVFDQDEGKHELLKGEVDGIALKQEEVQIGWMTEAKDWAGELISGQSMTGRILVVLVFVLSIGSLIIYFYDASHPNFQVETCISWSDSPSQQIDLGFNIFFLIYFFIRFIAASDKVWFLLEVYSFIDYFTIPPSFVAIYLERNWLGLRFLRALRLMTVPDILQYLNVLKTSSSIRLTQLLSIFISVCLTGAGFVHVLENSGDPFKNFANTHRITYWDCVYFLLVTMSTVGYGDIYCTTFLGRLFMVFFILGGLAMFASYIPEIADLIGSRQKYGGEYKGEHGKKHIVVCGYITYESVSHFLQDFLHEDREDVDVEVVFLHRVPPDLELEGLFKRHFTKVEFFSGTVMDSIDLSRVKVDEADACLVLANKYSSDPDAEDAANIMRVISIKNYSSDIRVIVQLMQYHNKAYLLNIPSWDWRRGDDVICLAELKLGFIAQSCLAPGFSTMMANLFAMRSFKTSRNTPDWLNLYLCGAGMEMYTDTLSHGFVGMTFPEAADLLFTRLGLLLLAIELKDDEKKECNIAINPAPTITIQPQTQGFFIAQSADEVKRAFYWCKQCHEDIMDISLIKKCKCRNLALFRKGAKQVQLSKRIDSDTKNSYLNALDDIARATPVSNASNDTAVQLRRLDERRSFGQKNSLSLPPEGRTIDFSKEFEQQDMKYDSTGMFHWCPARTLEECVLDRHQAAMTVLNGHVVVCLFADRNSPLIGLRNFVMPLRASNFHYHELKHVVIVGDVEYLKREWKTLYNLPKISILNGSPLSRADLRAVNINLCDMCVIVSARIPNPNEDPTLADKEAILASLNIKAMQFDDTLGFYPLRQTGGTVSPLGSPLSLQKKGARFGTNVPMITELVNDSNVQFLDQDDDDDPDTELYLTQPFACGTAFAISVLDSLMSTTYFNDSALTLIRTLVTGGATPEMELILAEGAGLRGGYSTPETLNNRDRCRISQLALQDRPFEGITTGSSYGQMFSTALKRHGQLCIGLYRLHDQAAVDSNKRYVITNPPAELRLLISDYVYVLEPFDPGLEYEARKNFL

Row | SMILES | EC50 (D. immitis Slo-1) | inhibition at 1 µg/mL [1] | inhibition at 10 µg/mL [1] | EC50 [2] | EC50 [3] | inhibition at 0.1 µg/mL [4]
1 | O=C(Nc1cnc2c(-c3cc(F)cc(F)c3F)c(F)ccc2c1C1CCOCC1)C1CCOc2ccccc21 (racemic) [Example 10, N-(7-Fluoro-4-(tetrahydro-2H-pyran-4-yl)-8-(2,3,5-trifluorophenyl)quinolin-3-yl)chroman-4-carboxamide] | 10 to 100 nM | > 80% | > 80% | < 0.1 µg/mL | < 0.1 µg/mL | > 80%
2 | O=C(Nc1cnc2c(-c3cc(F)cc(F)c3F)cccc2c1C1CCOCC1)C1CCOc2ccccc21 (racemic) [Example 9, N-(4-(Tetrahydro-2H-pyran-4-yl)-8-(2,3,5-trifluorophenyl)quinolin-3-yl)chroman-4-carboxamide] | 100 to 1000 nM | > 80% | > 80% | < 0.1 µg/mL | < 0.1 µg/mL | > 80%
3 | CN(C)c1c(NC(=O)C2CCOc3ccccc32)cnc2c(-c3cc(F)cc(F)c3F)cccc12 (racemic) [Example 5, N-(4-(Dimethylamino)-8-(2,3,5-trifluorophenyl)quinolin-3-yl)chroman-4-carboxamide] | 100 to 1000 nM | > 80% | > 80% | < 0.1 µg/mL | < 0.1 µg/mL | > 80%
4 | CN(C)c1c(NC(=O)C2CCOc3ccccc32)cnc2c(-c3cccc(Cl)c3Cl)c(F)ccc12 (racemic) [Example 17, N-(8-(2,3-dichlorophenyl)-4-(dimethylamino)-7-fluoroquinolin-3-yl)chroman-4-carboxamide] | 100 to 1000 nM | > 80% | > 80% | < 0.1 µg/mL | < 0.1 µg/mL | > 80%
5 | CCc1c(NC(=O)C2CCOc3ccccc32)cnc2c(-c3cc(F)cc(F)c3F)c(F)ccc12 (racemic) [Example 13, N-(4-ethyl-7-fluoro-8-(2,3,5-trifluorophenyl)quinolin-3-yl)chromane-4-carboxamide] | 10 to 100 nM | > 80% | > 80% | < 0.1 µg/mL | < 0.1 µg/mL | > 80%
6 | O=C(Nc1cnc2c(-c3cc(F)cc(F)c3F)cccc2c1N1CCOCC1)C1CCOc2ccccc21 (racemic) [Example 7, N-(4-Morpholino-8-(2,3,5-trifluorophenyl)quinolin-3-yl)chroman-4-carboxamide] | 10 to 100 nM | > 80% | > 80% | < 0.1 µg/mL | < 0.1 µg/mL | –
7 | CN(C)c1c(NC(=O)C2CCc3ccccc32)cnc2c(-c3cc(F)cc(F)c3F)cccc12 (racemic) [Example 6, N-(4-(Dimethylamino)-8-(2,3,5-trifluorophenyl)quinolin-3-yl)-2,3-dihydro-1H-indene-1-carboxamide] | 100 to 1000 nM | – | – | < 0.1 µg/mL | < 0.1 µg/mL | –
8 | O=C(Nc1cnc2c(-c3cc(Cl)cc(Cl)c3)cccc2c1C1CCOCC1)C1CCc2ccccc21 (racemic) [Example 14, N-(8-(3,5-dichlorophenyl)-4-(tetrahydro-2H-pyran-4-yl)quinolin-3-yl)-2,3-dihydro-1H-indene-1-carboxamide] | 100 to 1000 nM | > 80% | > 80% | < 0.1 µg/mL | < 0.1 µg/mL | > 80%
9 | CCc1c(NC(=O)C2CCOc3ccccc32)cnc2c(-c3cc(F)cc(F)c3F)cccc12 (racemic) [Example 8, N-(4-Ethyl-8-(2,3,5-trifluorophenyl)quinolin-3-yl)chroman-4-carboxamide] | 100 to 1000 nM | > 80% | > 80% | – | < 0.1 µg/mL | –
10 | CN(C)c1c(NC(=O)[C@@H]2CCc3ccccc32)cnc2c(-c3cc(F)cc(F)c3F)cccc12 [Example 4, (R)-N-(4-(dimethylamino)-8-(2,3,5-trifluorophenyl)quinolin-3-yl)-2,3-dihydro-1H-indene-1-carboxamide] | 100 to 1000 nM | – | – | < 0.1 µg/mL | < 0.1 µg/mL | –
11 | CN(C)c1c(NC(=O)C2CCc3ccccc32)cnc2c(-c3cccc(Cl)c3Cl)c(F)ccc12 (racemic) [Example 18, N-(8-(2,3-dichlorophenyl)-4-(dimethylamino)-7-fluoroquinolin-3-yl)-2,3-dihydro-1H-indene-1-carboxamide] | 100 to 1000 nM | > 80% | > 80% | < 0.1 µg/mL | < 0.1 µg/mL | –
12 | CN(C)c1c(NC(=O)C2CCOc3ccccc32)cnc2c(-c3cc(F)cc(F)c3F)c(F)ccc12 (racemic) [Example 11, N-(4-(dimethylamino)-7-fluoro-8-(2,3,5-trifluorophenyl)quinolin-3-yl)chroman-4-carboxamide] | 10 to 100 nM | > 80% | > 80% | < 0.1 µg/mL | < 0.1 µg/mL | > 80%
13 | O=C(Nc1cnc2c(-c3cc(Cl)cc(Cl)c3)c(F)ccc2c1N1CCOCC1)C1CCOc2ccccc21 (racemic) [Example 15, N-(8-(3,5-dichlorophenyl)-7-fluoro-4-morpholinoquinolin-3-yl)chromane-4-carboxamide] | 10 to 100 nM | > 80% | > 80% | < 0.1 µg/mL | < 0.1 µg/mL | –
14 | CN(C)c1c(NC(=O)C2CCc3ccccc32)cnc2c(-c3cc(F)cc(F)c3F)c(F)ccc12 (racemic) [Example 12, N-(4-(dimethylamino)-7-fluoro-8-(2,3,5-trifluorophenyl)quinolin-3-yl)-2,3-dihydro-1H-indene-1-carboxamide] | 100 to 1000 nM | – | – | < 0.1 µg/mL | < 0.1 µg/mL | –
15 | CN(C)c1c(NC(=O)[C@H]2CCOc3ccccc32)cnc2c(-c3cc(F)cc(F)c3F)cccc12 [Example 1, (S)-N-(4-(dimethylamino)-8-(2,3,5-trifluorophenyl)quinolin-3-yl)chromane-4-carboxamide] | 100 to 1000 nM | > 80% | > 80% | < 0.1 µg/mL | < 0.1 µg/mL | –
16 | CCc1c(NC(=O)C2CCOc3ccccc32)cnc2c(-c3cc(Cl)cc(Cl)c3)c(F)ccc12 (racemic) [Example 16, N-(8-(3,5-dichlorophenyl)-4-ethyl-7-fluoroquinolin-3-yl)chromane-4-carboxamide] | 100 to 1000 nM | > 80% | > 80% | < 0.1 µg/mL | < 0.1 µg/mL | > 80%
